Data set [1] has as its system HEK293 cells. Nature of the data set: HDAd-LacZ infection with corticosteroid, X-Gal staining for LacZ expression in HEK293 cells. The format is cell-based. To be noted: dose range of corticosteroid with HDAd-LacZ. On the procedure: Methods: 116 cells or HEK293 cells were seeded in 12-well or 96-well plates in standard cell culture media. One day later, cells were infected with the gene therapy vector HDAd-LacZ (a helper-dependent adenoviral vector expressing beta-galactosidase (LacZ) under the control of the constitutive CMV promoter) at different multiplicities of infections (MOIs; virus particles per cells seeded) mixed with different amounts/concentrations of the corticosteroids triamcinolone acetonide (TAC; TriamHEXAL®, Hexal AG, Holzkirchen, Germany), betamethasone (Celestan®, MSD, Kenilworth, NJ, USA), or dexamethasone (Lipotalon®, Recordati, Milan, Italy). HDAd-LacZ was produced by GeneQuine Biotherapeutics GmbH (HDAd-LacZ originally sourced from Baylor College of Medicine, USA). In an experiment evaluating different timing or administration of the corticosteroid relative to administration of the HDAs-LacZ, cells were either pre-treated with TAC 3 hours prior to infection with HDAd-LacZ (PRE), TAC treatment and HDAd-LacZ infection was done simultaneously as described above (SIMULTANEOUS), or cells were treated with TAC 3 hours post infection with HDAd-LacZ (POST). One day later, supernatants were aspirated and cell monolayers were stained for LacZ expression using the X-Gal staining kit according to manufacturer's manual (OZ Bioscience, Marseille, France). Macroscopic and microscopic (at 4× or 10× magnification) photos of the stained monolayers were taken (blue staining indicates LacZ expression). A preliminary measure of intensity of the staining was semi-quantitatively measured using ImageJ software by converting the images to 8-bit grayscale and drawing regions of interest around the areas to be measured. The mean intensity values (on a scale of 0-255; 0 being black and 255 being white) were subtracted from 255, divided by 255 and multiplied by 100, i.e. reported values were on a scale of 0-100 (0 being white and 100 being black) where higher values indicate more intense (darker) staining.

Data set [2] concerns rat knee joint. Description: Synovial/periarticular inflammation in rat knee joint after intraarticular HDAd-LacZ with or without TAC. It is filed as in vivo. To be noted: coadministration of 0.06 mg TAC with HDAd-LacZ. The protocol: Rats obtained from Envigo (Indianapolis, IN) were housed in polycarbonate cages, 4 animals per cage. After 4 days acclimatization, on study day 0, animals (mean weight of 310 g) were randomized into groups by bodyweight, 6 animals per group. Following randomization, test article administration was performed by intraarticular injection of 50 μL/joint. In respective groups, animals were treated with: 5E7 VP HDAd-LacZ, 5E8 VP HDAd-LacZ, 5E9 VP HDAd-LacZ, 5E10 VP HDAd-LacZ, 5E7 VP HDAd-LacZ+0.06 mg TAC, 5E8 VP HDAd-LacZ+0.06 mg TAC, 5E9 VP HDAd-LacZ+0.06 mg TAC, 5E10 VP HDAd-LacZ+0.06 mg TAC or vehicle.
For the groups co-treated with HDAd-LacZ and TAC, TAC suspension was prepared by diluting the commercially available injectable suspension (Kenalog 10, Bristol-Myers Squibb) with isotonic saline solution and added to the HDAd-LacZ preparation (i.e. the injection volume of 50 μL of the test article+TAC mixture contained 0.06 mg TAC).
At necropsy on study day 4, the rats were anesthetized with isoflurane. […]
The tissues were evaluated by the investigator microscopically for inflammation and X-gal staining in a blinded manner. The approximate lengths of the medial and lateral synovia were measured using an ocular micrometer. The lengths of the X-gal-stained areas were measured, and the length of staining relative to the total length of the area (%) was determined. […]

The record followed here is patent US20260174905A1, “COMPOSITIONS AND METHODS FOR IMPROVED ADENOVIRAL-BASED GENE THERAPY UTILIZING CORT[…]” (Pacira Therapeutics, Inc., priority 2023, published 2026).

Consider `C[C@H]1C[C@H]2[C@@H]3CCC4=CC(=O)C=C[C@]4(C)[C@@]3(F)[C@@H](O)C[C@]2(C)[C@@]1(O)C(=O)CO` [betamethasone], for which the “concentration at which enhancement of HDAd-mediated LacZ expression started” value (from here on “concentration at which enhancement”) in data set [1] is recorded as 3.9 ng/mL.
With `CC1(C)O[C@@H]2C[C@H]3[C@@H]4CCC5=CC(=O)C=C[C@]5(C)[C@@]4(F)[C@@H](O)C[C@]3(C)[C@]2(C(=O)CO)O1` [TAC, triamcinolone acetonide], in data set [1], the “concentration at which enhancement” value came to 0.18 ng/mL. In addition, the “HDAd-LacZ mediated inflammation (synovial/periarticular)” value in data set [2] is recorded as “reduced”.
`C[C@@H]1C[C@H]2[C@@H]3CCC4=CC(=O)C=C[C@]4(C)[C@@]3(F)[C@@H](O)C[C@]2(C)[C@@]1(O)C(=O)CO` [dexamethasone]: the “concentration at which enhancement” value in data set [1] was found to be 3.9 ng/mL.
